Reference: patent publication US12371428B2 (Exelixis, Inc., priority 2019, dated 2025)
Structures can show the parent of a compound that is named as a salt.

Legend:
[1] = biological target: Human MER (residues 528-999) (Homo sapiens (Human), UniProt Q12866); assay: Human Mer kinase assay, HTRF KinEase (Example C-2); type: biochemical
Method in brief: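 IC50 values from 10 concentrations via 4-parameter logistic fit of […], with DMSO as 100% and 1 μM reference compound as 0% activity. Reaction: MER kinase domain 528-999, 1 ng/well, 40 μM ATP (Km), biotin peptide, 5 mM MgCl2, 1 mM DTT, 3% DMSO, room temperature 60 min; HTRF streptavidin-XL665/Eu-antibody detection.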

[2] = biological target: KDR (phospho-KDR, VEGF165-stimulated HUVEC cells) (Homo sapiens (Human), UniProt P35968); assay: KDR autophosphorylation ELISA in HUVEC cells (Example G); type: cell-based; details: cellular activity; KDR autophosphorylation ELISA in HUVEC cells
Chain of KDR (phospho-KDR, VEGF165-stimulated HUVEC cells) (P35968 20-1356): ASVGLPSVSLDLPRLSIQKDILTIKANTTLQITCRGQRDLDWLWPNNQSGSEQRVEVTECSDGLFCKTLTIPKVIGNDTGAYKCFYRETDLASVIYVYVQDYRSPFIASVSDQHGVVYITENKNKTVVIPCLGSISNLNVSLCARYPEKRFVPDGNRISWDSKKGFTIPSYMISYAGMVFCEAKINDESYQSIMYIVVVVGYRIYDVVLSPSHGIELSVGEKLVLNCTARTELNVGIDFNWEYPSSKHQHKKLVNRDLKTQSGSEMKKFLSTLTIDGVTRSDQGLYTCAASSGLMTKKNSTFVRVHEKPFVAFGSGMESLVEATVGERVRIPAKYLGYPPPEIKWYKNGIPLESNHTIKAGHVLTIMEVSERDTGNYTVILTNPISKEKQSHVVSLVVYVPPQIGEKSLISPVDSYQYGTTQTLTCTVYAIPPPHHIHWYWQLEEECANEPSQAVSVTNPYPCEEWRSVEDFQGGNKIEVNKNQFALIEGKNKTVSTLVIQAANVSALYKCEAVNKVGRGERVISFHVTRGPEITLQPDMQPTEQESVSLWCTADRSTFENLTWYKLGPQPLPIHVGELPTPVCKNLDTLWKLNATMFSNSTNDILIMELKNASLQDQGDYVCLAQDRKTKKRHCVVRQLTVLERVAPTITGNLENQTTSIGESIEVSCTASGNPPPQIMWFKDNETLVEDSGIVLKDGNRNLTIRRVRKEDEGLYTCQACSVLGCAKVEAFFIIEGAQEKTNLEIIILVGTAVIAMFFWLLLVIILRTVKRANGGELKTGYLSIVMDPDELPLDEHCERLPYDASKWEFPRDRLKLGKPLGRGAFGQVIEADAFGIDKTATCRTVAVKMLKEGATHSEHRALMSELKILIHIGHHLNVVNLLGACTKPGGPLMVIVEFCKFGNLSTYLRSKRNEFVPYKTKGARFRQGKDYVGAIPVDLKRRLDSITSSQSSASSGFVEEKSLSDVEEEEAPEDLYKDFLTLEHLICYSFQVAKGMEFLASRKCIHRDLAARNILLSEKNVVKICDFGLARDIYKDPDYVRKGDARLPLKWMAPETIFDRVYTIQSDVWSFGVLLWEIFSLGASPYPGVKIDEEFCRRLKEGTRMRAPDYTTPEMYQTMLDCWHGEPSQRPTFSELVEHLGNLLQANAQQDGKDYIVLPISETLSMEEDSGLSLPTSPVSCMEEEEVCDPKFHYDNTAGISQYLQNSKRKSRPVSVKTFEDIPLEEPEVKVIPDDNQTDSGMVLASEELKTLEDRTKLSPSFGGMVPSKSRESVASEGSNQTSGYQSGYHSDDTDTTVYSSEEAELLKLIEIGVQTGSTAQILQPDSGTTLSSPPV
Method in brief: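 HUVECs were serum-starved 24 h, given compound as an 8-point dilution series (0.3% DMSO final) for 1 h, then stimulated with 100 ng/mL VEGF165 for 5 min. Lysate phospho-KDR was quantified by sandwich ELISA against a phospho-KDR standard, and IC50s came from a 4-parameter logistic fit.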

[3] = protocol of Example C-2 (other compounds)

Chain of Human MER (residues 528-999) (Q12866 528-999): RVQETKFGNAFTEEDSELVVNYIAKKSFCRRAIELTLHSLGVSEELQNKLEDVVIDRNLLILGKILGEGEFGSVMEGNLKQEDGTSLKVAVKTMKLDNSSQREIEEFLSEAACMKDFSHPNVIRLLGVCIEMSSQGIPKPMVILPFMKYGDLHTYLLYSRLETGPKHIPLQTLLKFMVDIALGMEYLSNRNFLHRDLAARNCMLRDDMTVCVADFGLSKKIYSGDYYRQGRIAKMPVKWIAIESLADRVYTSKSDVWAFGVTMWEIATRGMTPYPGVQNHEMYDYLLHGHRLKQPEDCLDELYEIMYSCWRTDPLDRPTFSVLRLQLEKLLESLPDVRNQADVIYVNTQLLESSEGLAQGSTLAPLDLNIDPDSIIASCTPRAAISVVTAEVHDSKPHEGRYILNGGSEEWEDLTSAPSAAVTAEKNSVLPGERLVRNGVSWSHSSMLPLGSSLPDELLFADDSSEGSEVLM

Row | SMILES | IC50 ([1]; protocol of Example C-2) [nM] | IC50 [2] [nM] | IC50 [1, 3] [nM]
1 | Cc1cc(F)ccc1-c1c(C)ncc(C(=O)Nc2ccc(Oc3ccnc4cc(C(C)C)cnc34)c(F)c2)c1O [Compound 593, 5-(4-Fluoro-2-methylphenyl)-N-[3-fluoro-4-[(7-propan-2-yl-1,5-naphthyridin-4-yl)oxy]phenyl]-4-hydroxy-6-methylpyridine-3-carboxamide] | 100 to 300 | < 100 | –
2 | COc1cc2nccc(Oc3ccc(NC(=O)c4cn(C(C)C)c(C)c(-c5ccc(F)cc5)c4=O)cc3F)c2nc1N [Compound 579, N-[4-[(6-Amino-7-methoxy-1,5-naphthyridin-4-yl)oxy]-3-fluorophenyl]-5-(4-fluorophenyl)-6-methyl-4-oxo-1-propan-2-ylpyridine-3-carboxamide] | < 100 | > 300 | –
3 | Cc1nc(C)c(-c2ccc(F)cc2)c(O)c1C(=O)Nc1ccc(Oc2ccnc3cc(C(C)C)cnc23)c(F)c1 [Compound 595, 5-(4-Fluorophenyl)-N-[3-fluoro-4-[(7-propan-2-yl-1,5-naphthyridin-4-yl)oxy]phenyl]-4-hydroxy-2,6-dimethylpyridine-3-carboxamide] | < 100 | < 100 | –
4 | COc1cc2nccc(Oc3ccc(NC(=O)c4cn(C(C)C)c(C)c(-c5ccccc5)c4=O)cc3F)c2nc1OC [Compound 29, N-[4-[(6,7-Dimethoxy-1,5-naphthyridin-4-yl)oxy]-3-fluorophenyl]-6-methyl-4-oxo-5-phenyl-1-propan-2-ylpyridine-3-carboxamide hydrochloride] | – | 100 to 300 | < 100
5 | CCn1cc(C(=O)Nc2ccc(Oc3ccnc4cc(OC)c(OC)nc34)cc2)c(=O)c(-c2ccc(F)cc2)c1 [Compound 167, N-[4-[(6,7-Dimethoxy-1,5-naphthyridin-4-yl)oxy]phenyl]-1-ethyl-5-(4-fluorophenyl)-4-oxopyridine-3-carboxamide] | – | < 100 | < 100
6 | Cc1nc2c(Oc3ccc(NC(=O)c4cnc(C)c(-c5ccc(F)cc5)c4O)cc3F)ccnc2cc1-c1cnn(C(F)F)c1 [Compound 615, N-[4-[[7-[1-(Difluoromethyl)pyrazol-4-yl]-6-methyl-1,5-naphthyridin-4-yl]oxy]-3-fluorophenyl]-5-(4-fluorophenyl)-4-hydroxy-6-methylpyridine-3-carboxamide hydrochloride] | < 100 | < 100 | –
7 | COc1nc2c(Oc3ccc(NC(=O)c4cnc(C)c(-c5ccc(F)cc5)c4O)cc3F)ccnc2cc1Br [Compound 130, N-[4-[(7-Bromo-6-methoxy-1,5-naphthyridin-4-yl)oxy]-3-fluorophenyl]-5-(4-fluorophenyl)-4-hydroxy-6-methylpyridine-3-carboxamide] | – | < 100 | < 100
8 | CCn1cc(C(=O)Nc2ccc(Oc3ccnc4cc(OC)cnc34)c(F)c2)c(=O)c(-c2ccc(F)cc2)c1 [Compound 170, 1-Ethyl-N-[3-fluoro-4-[(7-methoxy-1,5-naphthyridin-4-yl)oxy]phenyl]-5-(4-fluorophenyl)-4-oxopyridine-3-carboxamide] | – | > 300 | < 100
9 | COc1cc2nccc(Oc3ccc(NC(=O)c4cn(-c5cccnc5)cc(-c5ccc(F)cc5)c4=O)cc3F)c2nc1OC [Compound 125, N-[4-[(6,7-Dimethoxy-1,5-naphthyridin-4-yl)oxy]-3-fluorophenyl]-5-(4-fluorophenyl)-4-oxo-1-pyridin-3-ylpyridine-3-carboxamide] | – | > 300 | < 100
10 | COc1cnc2c(Oc3ccc(NC(=O)c4cn(C)c(C)c(-c5ccc(F)cc5)c4=O)cc3F)ccnc2c1 [Compound 156, N-[3-Fluoro-4-[(7-methoxy-1,5-naphthyridin-4-yl)oxy]phenyl]-5-(4-fluorophenyl)-1,6-dimethyl-4-oxopyridine-3-carboxamide] | – | > 300 | < 100
11 | COc1cc2nccc(Oc3ccc(NC(=O)c4cn(C(C)C)c(C)c(-c5ccc(F)cc5)c4=O)cc3F)c2nc1O [Compound 580, N-[3-Fluoro-4-[(6-hydroxy-7-methoxy-1,5-naphthyridin-4-yl)oxy]phenyl]-5-(4-fluorophenyl)-6-methyl-4-oxo-1-propan-2-ylpyridine-3-carboxamide] | < 100 | > 300 | –
12 | Cc1nc2c(Oc3ccc(NC(=O)c4cnc(C)c(-c5ccc(F)cc5)c4O)cc3)ccnc2cc1-c1cnn(C(F)F)c1 [Compound 617, N-[4-[[7-[1-(Difluoromethyl)pyrazol-4-yl]-6-methyl-1,5-naphthyridin-4-yl]oxy]phenyl]-5-(4-fluorophenyl)-4-hydroxy-6-methylpyridine-3-carboxamide hydrochloride] | < 100 | < 100 | –
13 | COc1cc2c(Oc3ccc(NC(=O)c4cn(C5CC5)c(C)c(-c5ccc(F)cc5)c4=O)cc3F)ccnc2cn1 [Compound 640, 1-cyclopropyl-N-[3-fluoro-4-[(6-methoxy-1,7-naphthyridin-4-yl)oxy]phenyl]-5-(4-fluorophenyl)-6-methyl-4-oxopyridine-3-carboxamide] | < 100 | > 300 | –
14 | Cc1ncc(C(=O)Nc2ccc(Oc3ccnc4cc(C(N)=O)cnc34)c(F)c2)c(O)c1-c1ccc(F)cc1 [Compound 577, 8-[2-Fluoro-4-[[5-(4-fluorophenyl)-4-hydroxy-6-methylpyridine-3-carbonyl]amino]phenoxy]-1,5-naphthyridine-3-carboxamide] | < 100 | < 100 | –
15 | Cc1ncc(C(=O)Nc2ccc(Oc3ccnc4cc(C(C)C)cnc34)c(F)c2)c(O)c1-c1ccc(F)cc1 [Compound 596, 5-(4-Fluorophenyl)-N-[3-fluoro-4-[(7-propan-2-yl-1,5-naphthyridin-4-yl)oxy]phenyl]-4-hydroxy-6-methylpyridine-3-carboxamide] | < 100 | < 100 | –
16 | COc1cc2nccc(Oc3ccc(NC(=O)c4cnc(C)c(-c5ccc(F)cc5)c4O)cc3F)c2nc1NS(C)(=O)=O [Compound 584, N-[3-Fluoro-4-[[6-(methanesulfonamido)-7-methoxy-1,5-naphthyridin-4-yl]oxy]phenyl]-5-(4-fluorophenyl)-4-hydroxy-6-methylpyridine-3-carboxamide] | < 100 | < 100 | –
17 | COc1nc2c(Oc3ccc(NC(=O)c4cncc(-c5ccc(F)cc5)c4O)cc3F)ccnc2cc1Br [Compound 129, N-[4-[(7-Bromo-6-methoxy-1,5-naphthyridin-4-yl)oxy]-3-fluorophenyl]-5-(4-fluorophenyl)-4-hydroxypyridine-3-carboxamide] | – | < 100 | < 100
18 | Cc1ncc(C(=O)Nc2ccc(Oc3ccnc4cc(C(F)(F)F)cnc34)c(F)c2)c(O)c1-c1ccc(F)cc1 [Compound 151, 5-(4-Fluorophenyl)-N-[3-fluoro-4-[[7-(trifluoromethyl)-1,5-naphthyridin-4-yl]oxy]phenyl]-4-hydroxy-6-methylpyridine-3-carboxamide] | – | < 100 | < 100
19 | Cc1cc2c(Oc3ccc(NC(=O)c4cnc(C)c(-c5ccc(F)cc5)c4O)cc3F)ccnc2cn1 [Compound 645, N-[3-fluoro-4-[(6-methyl-1,7-naphthyridin-4-yl)oxy]phenyl]-5-(4-fluorophenyl)-4-hydroxy-6-methylpyridine-3-carboxamide] | < 100 | < 100 | –
